Experimental data: paper PMC10073347 (Nature chemistry, 2023)

Biological target: T1, SeMet CtdP (Penicillium citrinum, UniProt Z9QVB9HE69)
T1 sequence (Z9QVB9HE69 1-348): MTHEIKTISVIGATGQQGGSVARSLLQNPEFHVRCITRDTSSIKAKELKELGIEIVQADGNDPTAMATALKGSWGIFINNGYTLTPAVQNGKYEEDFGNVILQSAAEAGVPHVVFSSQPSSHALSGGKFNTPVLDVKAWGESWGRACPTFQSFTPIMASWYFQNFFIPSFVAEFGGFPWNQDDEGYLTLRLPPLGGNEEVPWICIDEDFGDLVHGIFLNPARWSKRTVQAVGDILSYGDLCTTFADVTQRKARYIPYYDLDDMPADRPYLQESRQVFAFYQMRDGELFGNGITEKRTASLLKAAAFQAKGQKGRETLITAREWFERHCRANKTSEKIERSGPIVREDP
Test: X-ray crystal structure, […] Å, SeMet SAD
Type: binding
Details: bound in all four chains; product 10 in chains A, B, D

SMILES: NC(=O)c1ccc[n+]([C@@H]2O[C@H](COP(=O)(O)OP(=O)(O)OC[C@H]3O[C@@H](n4cnc5c(N)ncnc54)[C@H](OP(=O)(O)O)[C@@H]3O)[C@@H](O)[C@H]2O)c1 [NADP^+]
- X-ray crystal structure, 2.5 Å, SeMet SAD: four chains (A-D) in the asymmetric unit, all in complex with NADP^+
